These results are taken from article PMC9856672, “SGC-CAMKK2-1: A Chemical Probe for CAMKK2” (Cells, 2023).

One assay deals with T1, KIT(V559D,V654A) (Homo sapiens, UniProt P10721, V559D/V654A).
T1 construct: purchased Eurofins DiscoverX KINOMEscan
Nature of the assay: KINOMEscan 1 μM, KIT(V559D,V654A). It is filed as binding. As to conditions: 1000 nM; Entrez KIT; read-out: Percent Control. The source says:
(§1) Supplement cells-12-00287-s001.zip/File S2. KinomeScan data for the CAMKK2 probe and negative control.xlsx, sheet "SGC-CAMKK2-1" | column: Percent Control

The target of another assay is T2, DDR2 (Homo sapiens, UniProt Q16832).
T2 construct: purchased Eurofins DiscoverX KINOMEscan
Nature of the assay: KINOMEscan 1 μM, DDR2. It is filed as binding. As to conditions: 1000 nM; Entrez DDR2; read-out: Percent Control.
From the text: as §1

For a further assay, the target named is T3, TSSK3 (Homo sapiens, UniProt Q96PN8).
T3 construct: purchased Eurofins DiscoverX KINOMEscan
Nature of the assay: KINOMEscan 1 μM, TSSK3. Type of assay: binding. As to conditions: 1000 nM; Entrez TSSK3; read-out: Percent Control.
From the text: as §1

The next assay has as its target T4, AMPK-alpha1 (Homo sapiens, UniProt Q13131).
T4 construct: purchased Eurofins DiscoverX KINOMEscan
Nature of the assay: KINOMEscan 1 μM, AMPK-alpha1. As to conditions: 1000 nM; Entrez PRKAA1; read-out: Percent Control. Type of assay: binding.
From the text: as §1

In the next assay the target is T5, TNK2 (Homo sapiens, UniProt Q07912).
T5 construct: purchased Eurofins DiscoverX KINOMEscan
The assay is described as follows: KINOMEscan 1 μM, TNK2. Conditions: 1000 nM; Entrez TNK2; read-out: Percent Control. Type of assay: binding.
From the text: as §1

The target in another assay is T6, PIK3CA(C420R) (Homo sapiens, UniProt P42336, C420R).
T6 construct: purchased Eurofins DiscoverX KINOMEscan
The assay is described as follows: DiscoverX KINOMEscan binding assay at 1 μM, PIK3CA(C420R). Conditions: Compound Concentration 1000 nM, read-out: Percent Control.
From the text: as §1

The target of assay [1] is T7, TNIK (Homo sapiens, UniProt Q9UKE5).
T7 construct: purchased Eurofins DiscoverX KINOMEscan
T7 sequence (Q9UKE5 whole entry): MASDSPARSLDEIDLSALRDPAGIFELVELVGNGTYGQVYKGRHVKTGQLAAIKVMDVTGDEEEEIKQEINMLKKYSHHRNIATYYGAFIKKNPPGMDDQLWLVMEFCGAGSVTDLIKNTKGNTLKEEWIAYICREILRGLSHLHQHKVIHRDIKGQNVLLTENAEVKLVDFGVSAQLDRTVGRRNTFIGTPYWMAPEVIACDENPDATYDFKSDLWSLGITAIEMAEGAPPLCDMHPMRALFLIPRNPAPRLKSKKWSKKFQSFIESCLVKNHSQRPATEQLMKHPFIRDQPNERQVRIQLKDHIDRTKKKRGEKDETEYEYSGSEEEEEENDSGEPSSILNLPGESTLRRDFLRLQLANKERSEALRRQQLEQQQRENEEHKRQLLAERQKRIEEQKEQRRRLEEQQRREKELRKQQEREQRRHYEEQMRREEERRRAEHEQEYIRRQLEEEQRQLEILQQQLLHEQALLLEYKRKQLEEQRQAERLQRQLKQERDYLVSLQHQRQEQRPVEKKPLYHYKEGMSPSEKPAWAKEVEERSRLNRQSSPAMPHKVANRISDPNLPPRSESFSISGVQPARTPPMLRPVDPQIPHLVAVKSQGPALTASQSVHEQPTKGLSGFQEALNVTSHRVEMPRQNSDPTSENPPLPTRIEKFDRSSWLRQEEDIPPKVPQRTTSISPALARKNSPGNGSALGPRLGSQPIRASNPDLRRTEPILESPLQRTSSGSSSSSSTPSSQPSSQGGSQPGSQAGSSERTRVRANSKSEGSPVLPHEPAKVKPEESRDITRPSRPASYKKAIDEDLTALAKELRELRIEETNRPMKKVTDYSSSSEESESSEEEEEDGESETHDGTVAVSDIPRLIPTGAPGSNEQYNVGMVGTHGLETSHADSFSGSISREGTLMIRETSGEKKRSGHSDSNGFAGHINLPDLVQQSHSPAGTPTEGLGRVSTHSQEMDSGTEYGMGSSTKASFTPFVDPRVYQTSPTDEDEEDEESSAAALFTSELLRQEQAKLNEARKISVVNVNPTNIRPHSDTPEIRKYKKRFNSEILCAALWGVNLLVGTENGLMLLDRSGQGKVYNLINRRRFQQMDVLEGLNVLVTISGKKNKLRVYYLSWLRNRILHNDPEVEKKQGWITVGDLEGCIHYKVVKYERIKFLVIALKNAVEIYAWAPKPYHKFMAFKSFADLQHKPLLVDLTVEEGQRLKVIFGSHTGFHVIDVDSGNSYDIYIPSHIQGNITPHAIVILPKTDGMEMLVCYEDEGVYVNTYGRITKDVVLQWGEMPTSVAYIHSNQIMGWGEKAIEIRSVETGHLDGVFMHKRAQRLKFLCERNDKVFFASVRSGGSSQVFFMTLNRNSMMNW
The assay is described as follows: KINOMEscan 1 μM, TNIK. It is filed as binding. Conditions: 1000 nM; Entrez TNIK; read-out: Percent Control.
From the text: as §1

The target of assay [2] is T8, MTOR (Homo sapiens, UniProt P42345).
T8 construct: purchased Eurofins DiscoverX KINOMEscan
Nature of the assay: KINOMEscan 1 μM, MTOR. It is filed as binding. Conditions: 1000 nM; Entrez MTOR; read-out: Percent Control.
From the text: as §1

Another assay concerns the target T9, DRAK1 (Homo sapiens, UniProt Q9UEE5).
T9 construct: purchased Eurofins DiscoverX KINOMEscan
Nature of the assay: KINOMEscan 1 μM, DRAK1. It is filed as binding. As to conditions: 1000 nM; Entrez STK17A; read-out: Percent Control.
From the text: as §1

The target of assay [3] is T10, IGF1R (Homo sapiens, UniProt P08069).
T10 construct: purchased Eurofins DiscoverX KINOMEscan
T10 sequence (P08069 31-1367): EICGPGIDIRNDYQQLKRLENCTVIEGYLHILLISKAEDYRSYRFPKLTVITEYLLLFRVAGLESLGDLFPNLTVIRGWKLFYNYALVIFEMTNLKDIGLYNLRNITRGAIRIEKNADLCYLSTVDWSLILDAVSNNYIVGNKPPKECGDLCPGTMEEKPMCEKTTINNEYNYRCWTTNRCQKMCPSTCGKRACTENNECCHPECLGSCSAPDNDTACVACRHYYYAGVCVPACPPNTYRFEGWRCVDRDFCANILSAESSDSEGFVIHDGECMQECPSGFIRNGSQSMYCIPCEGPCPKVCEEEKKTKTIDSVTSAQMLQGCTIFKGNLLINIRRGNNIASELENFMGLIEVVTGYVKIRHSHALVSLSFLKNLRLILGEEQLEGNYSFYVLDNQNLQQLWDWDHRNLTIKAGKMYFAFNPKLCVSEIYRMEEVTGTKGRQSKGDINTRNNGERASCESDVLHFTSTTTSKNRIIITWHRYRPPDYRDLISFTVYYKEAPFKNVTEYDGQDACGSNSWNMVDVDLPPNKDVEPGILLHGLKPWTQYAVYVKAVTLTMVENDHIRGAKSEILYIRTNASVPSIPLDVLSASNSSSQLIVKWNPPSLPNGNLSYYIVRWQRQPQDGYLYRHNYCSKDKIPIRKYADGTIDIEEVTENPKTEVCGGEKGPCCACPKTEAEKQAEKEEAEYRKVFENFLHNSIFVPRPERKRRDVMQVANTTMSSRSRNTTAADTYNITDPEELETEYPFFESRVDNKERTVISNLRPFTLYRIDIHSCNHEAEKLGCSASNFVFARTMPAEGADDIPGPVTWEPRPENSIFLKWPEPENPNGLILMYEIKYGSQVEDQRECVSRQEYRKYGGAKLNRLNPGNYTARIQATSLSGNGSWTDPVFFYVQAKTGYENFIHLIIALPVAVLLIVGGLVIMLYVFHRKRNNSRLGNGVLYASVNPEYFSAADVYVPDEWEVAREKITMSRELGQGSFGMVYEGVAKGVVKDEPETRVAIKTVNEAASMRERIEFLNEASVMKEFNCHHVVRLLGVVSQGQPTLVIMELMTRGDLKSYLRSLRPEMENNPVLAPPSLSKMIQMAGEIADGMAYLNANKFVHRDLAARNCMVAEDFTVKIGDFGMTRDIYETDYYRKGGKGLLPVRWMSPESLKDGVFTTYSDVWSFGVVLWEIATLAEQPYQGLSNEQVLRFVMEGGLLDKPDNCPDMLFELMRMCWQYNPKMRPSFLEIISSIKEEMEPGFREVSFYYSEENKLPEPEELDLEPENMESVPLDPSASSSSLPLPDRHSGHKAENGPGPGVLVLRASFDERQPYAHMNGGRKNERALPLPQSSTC
The assay is described as follows: KINOMEscan 1 μM, IGF1R. Conditions: 1000 nM; Entrez IGF1R; read-out: Percent Control. Type of assay: binding.
From the text: as §1

The next assay addresses T11, CAMK1D (Homo sapiens, UniProt Q8IU85).
T11 construct: purchased Eurofins DiscoverX KINOMEscan
The assay is described as follows: KINOMEscan 1 μM, CAMK1D. It is filed as binding. As to conditions: 1000 nM; Entrez CAMK1D; read-out: Percent Control.
From the text: as §1

The target of the next assay is T12, YANK2 (Homo sapiens, UniProt Q9NY57).
T12 construct: purchased Eurofins DiscoverX KINOMEscan
Nature of the assay: DiscoverX KINOMEscan binding assay at 1 μM, YANK2. As to conditions: YANK2 (STK32B); Compound Concentration 1000 nM; read-out: Percent Control.
From the text: as §1

A further assay has as its target T13, CAMK2A (Homo sapiens, UniProt Q9UQM7).
T13 construct: purchased Eurofins DiscoverX KINOMEscan
Nature of the assay: KINOMEscan 1 μM, CAMK2A. As to conditions: 1000 nM; Entrez CAMK2A; read-out: Percent Control. Type of assay: binding.
From the text: as §1

In another assay the target is T14, PFCDPK1(P.falciparum) (Plasmodium falciparum, UniProt P62344).
T14 construct: purchased Eurofins DiscoverX KINOMEscan
The assay is described as follows: DiscoverX KINOMEscan binding assay at 1 μM, PFCDPK1(P.falciparum). As to conditions: PFCDPK1(P.falciparum) (CDPK1); Compound Concentration 1000 nM; read-out: Percent Control.
From the text: as §1

In another assay the target is T15, PRKCH (Homo sapiens, UniProt P24723).
T15 construct: purchased Eurofins DiscoverX KINOMEscan
T15 sequence (P24723 whole entry): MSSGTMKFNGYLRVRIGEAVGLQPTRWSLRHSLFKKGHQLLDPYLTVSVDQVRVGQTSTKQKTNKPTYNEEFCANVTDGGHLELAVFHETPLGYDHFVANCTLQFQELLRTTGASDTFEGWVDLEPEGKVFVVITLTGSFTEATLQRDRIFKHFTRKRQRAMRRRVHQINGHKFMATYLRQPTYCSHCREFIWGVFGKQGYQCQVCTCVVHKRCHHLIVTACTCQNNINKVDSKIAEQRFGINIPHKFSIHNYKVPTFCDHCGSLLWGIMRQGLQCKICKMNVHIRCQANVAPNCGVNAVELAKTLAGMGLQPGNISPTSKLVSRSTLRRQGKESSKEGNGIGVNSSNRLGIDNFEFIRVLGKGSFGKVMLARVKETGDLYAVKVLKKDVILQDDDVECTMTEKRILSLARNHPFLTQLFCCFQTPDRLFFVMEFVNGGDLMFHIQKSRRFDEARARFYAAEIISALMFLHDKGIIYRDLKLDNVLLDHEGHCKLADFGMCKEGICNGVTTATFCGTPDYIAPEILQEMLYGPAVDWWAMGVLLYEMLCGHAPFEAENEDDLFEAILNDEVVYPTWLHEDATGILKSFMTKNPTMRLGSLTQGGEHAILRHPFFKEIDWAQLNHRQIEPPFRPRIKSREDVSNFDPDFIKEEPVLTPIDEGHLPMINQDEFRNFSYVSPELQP
Nature of the assay: KINOMEscan at 1 μM, PRKCH. Type of assay: binding. Conditions: 1000 nM, read-out: Percent Control. From the text:
(§2) Supplement cells-12-00287-s001.zip/File S2. KinomeScan data for the CAMKK2 probe and negative control.xlsx, sheet "SGC-CAMKK2-1N" | column: Percent Control

The target in assay [4] is T7, TNIK. The assay is described as follows: KINOMEscan at 1 μM, TNIK. Type of assay: binding. As to conditions: 1000 nM, read-out: Percent Control.
From the text: as §2

In the next assay the target is T16, WNK2 (Homo sapiens, UniProt Q9Y3S1).
T16 construct: purchased Eurofins DiscoverX KINOMEscan
Nature of the assay: KINOMEscan at 1 μM, WNK2. Type of assay: binding. As to conditions: 1000 nM, read-out: Percent Control.
From the text: as §2

The target in another assay is T17, VRK2 (Homo sapiens, UniProt Q86Y07).
T17 construct: purchased Eurofins DiscoverX KINOMEscan
Nature of the assay: KINOMEscan at 1 μM, VRK2. As to conditions: 1000 nM, read-out: Percent Control. It is filed as binding.
From the text: as §2

Another assay addresses T18, GCN2(Kin.Dom.2,S808G) (Homo sapiens, UniProt Q9P2K8, S808G).
T18 construct: GCN2(Kin.Dom.2,S808G); purchased Eurofins DiscoverX KINOMEscan
Nature of the assay: KINOMEscan binding assay at 1 μM, GCN2(Kin.Dom.2,S808G). Conditions: Compound Concentration 1000 nM; read-out: Percent Control.
From the text: as §2

A further assay deals with T19, GRK3 (Homo sapiens, UniProt P35626).
T19 construct: purchased Eurofins DiscoverX KINOMEscan
Nature of the assay: KINOMEscan at 1 μM, GRK3. As to conditions: 1000 nM, read-out: Percent Control. It is filed as binding.
From the text: as §2

A further assay has as its target T20, STK16 (Homo sapiens, UniProt O75716).
T20 construct: purchased Eurofins DiscoverX KINOMEscan
Nature of the assay: KINOMEscan at 1 μM, STK16. Conditions: 1000 nM, read-out: Percent Control. It is filed as binding.
From the text: as §2

A further assay addresses T21, NIK (Homo sapiens, UniProt Q99558).
T21 construct: purchased Eurofins DiscoverX KINOMEscan
The assay is described as follows: KINOMEscan at 1 μM, NIK. It is filed as binding. Conditions: 1000 nM, read-out: Percent Control.
From the text: as §2

In the next assay the target is T22, CSNK1G1 (Homo sapiens, UniProt Q9HCP0).
T22 construct: purchased Eurofins DiscoverX KINOMEscan
Nature of the assay: KINOMEscan at 1 μM, CSNK1G1. It is filed as binding. As to conditions: 1000 nM, read-out: Percent Control.
From the text: as §2

Assay [5] deals with T23, JAK1(JH1domain-catalytic) (Homo sapiens, UniProt P23458).
T23 construct: JAK1(JH1domain-catalytic); purchased Eurofins DiscoverX KINOMEscan
The assay is described as follows: KINOMEscan at 1 μM, JAK1(JH1domain-catalytic). Type of assay: binding. Conditions: 1000 nM, read-out: Percent Control.
From the text: as §2

The target in assay [6] is T8, MTOR. The assay is described as follows: KINOMEscan binding assay at 1 μM, MTOR. Conditions: Compound Concentration 1000 nM; read-out: Percent Control.
From the text: as §2

A further assay addresses T24, DCAMKL2 (Homo sapiens, UniProt Q8N568).
T24 construct: purchased Eurofins DiscoverX KINOMEscan
The assay is described as follows: KINOMEscan at 1 μM, DCAMKL2. It is filed as binding. Conditions: 1000 nM, read-out: Percent Control.
From the text: as §2

Assay [7] has as its target T25, ABL1(M351T)-phosphorylated (Homo sapiens, UniProt P00519, M351T).
T25 construct: purchased Eurofins DiscoverX KINOMEscan
The assay is described as follows: KINOMEscan at 1 μM, ABL1(M351T)-phosphorylated. Conditions: 1000 nM, read-out: Percent Control. Type of assay: binding.
From the text: as §2

The target of the next assay is T26, DMPK (Homo sapiens, UniProt Q09013).
T26 construct: purchased Eurofins DiscoverX KINOMEscan
T26 sequence (Q09013 whole entry): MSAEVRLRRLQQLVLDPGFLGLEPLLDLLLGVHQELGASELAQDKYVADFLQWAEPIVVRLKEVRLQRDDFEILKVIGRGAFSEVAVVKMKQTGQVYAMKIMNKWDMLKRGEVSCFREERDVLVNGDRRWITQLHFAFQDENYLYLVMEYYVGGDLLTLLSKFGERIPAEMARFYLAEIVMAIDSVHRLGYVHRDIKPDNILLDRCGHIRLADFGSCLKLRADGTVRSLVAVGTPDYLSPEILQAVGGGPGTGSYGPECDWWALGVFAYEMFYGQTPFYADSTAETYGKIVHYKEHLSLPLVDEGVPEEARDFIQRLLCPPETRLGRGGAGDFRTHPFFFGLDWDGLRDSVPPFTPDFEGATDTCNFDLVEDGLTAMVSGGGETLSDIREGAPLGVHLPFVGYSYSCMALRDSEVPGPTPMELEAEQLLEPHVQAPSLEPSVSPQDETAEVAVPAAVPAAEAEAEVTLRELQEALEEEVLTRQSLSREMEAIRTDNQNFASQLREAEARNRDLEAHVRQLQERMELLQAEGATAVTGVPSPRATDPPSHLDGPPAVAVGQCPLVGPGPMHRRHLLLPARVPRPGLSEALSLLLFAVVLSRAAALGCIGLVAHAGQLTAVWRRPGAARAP
Nature of the assay: KINOMEscan at 1 μM, DMPK. It is filed as binding. Conditions: 1000 nM, read-out: Percent Control.
From the text: as §2

The target in a further assay is T27, MKK7 (Homo sapiens, UniProt O14733).
T27 construct: purchased Eurofins DiscoverX KINOMEscan
T27 sequence (O14733 whole entry): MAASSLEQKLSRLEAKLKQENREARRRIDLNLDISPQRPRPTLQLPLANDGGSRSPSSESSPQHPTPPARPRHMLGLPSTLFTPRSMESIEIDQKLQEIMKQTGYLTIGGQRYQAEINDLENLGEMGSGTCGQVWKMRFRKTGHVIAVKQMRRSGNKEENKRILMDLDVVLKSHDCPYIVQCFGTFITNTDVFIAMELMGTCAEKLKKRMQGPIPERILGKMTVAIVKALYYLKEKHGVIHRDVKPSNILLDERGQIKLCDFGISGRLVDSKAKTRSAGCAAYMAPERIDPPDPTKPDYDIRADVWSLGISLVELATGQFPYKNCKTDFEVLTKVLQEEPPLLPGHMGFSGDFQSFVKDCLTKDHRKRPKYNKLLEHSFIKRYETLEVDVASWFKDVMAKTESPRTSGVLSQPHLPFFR
The assay is described as follows: KINOMEscan at 1 μM, MKK7. It is filed as binding. As to conditions: 1000 nM, read-out: Percent Control.
From the text: as §2

Another assay addresses T28, ANKK1 (Homo sapiens, UniProt Q8NFD2).
T28 construct: purchased Eurofins DiscoverX KINOMEscan
The assay is described as follows: KINOMEscan at 1 μM, ANKK1. It is filed as binding. As to conditions: 1000 nM, read-out: Percent Control.
From the text: as §2

In the next assay the target is T29, CSF1R (Homo sapiens, UniProt P07333).
T29 construct: purchased Eurofins DiscoverX KINOMEscan
Nature of the assay: KINOMEscan at 1 μM, CSF1R. It is filed as binding. As to conditions: 1000 nM, read-out: Percent Control.
From the text: as §2

Assay [8] deals with T10, IGF1R. The assay is described as follows: KINOMEscan binding assay at 1 μM, IGF1R. As to conditions: Compound Concentration 1000 nM; read-out: Percent Control.
From the text: as §2

The next assay addresses T30, IRAK4 (Homo sapiens, UniProt Q9NWZ3).
T30 construct: purchased Eurofins DiscoverX KINOMEscan
The assay is described as follows: KINOMEscan at 1 μM, IRAK4. It is filed as binding. As to conditions: 1000 nM, read-out: Percent Control.
From the text: as §2

T30 sequence (Q9NWZ3 whole entry): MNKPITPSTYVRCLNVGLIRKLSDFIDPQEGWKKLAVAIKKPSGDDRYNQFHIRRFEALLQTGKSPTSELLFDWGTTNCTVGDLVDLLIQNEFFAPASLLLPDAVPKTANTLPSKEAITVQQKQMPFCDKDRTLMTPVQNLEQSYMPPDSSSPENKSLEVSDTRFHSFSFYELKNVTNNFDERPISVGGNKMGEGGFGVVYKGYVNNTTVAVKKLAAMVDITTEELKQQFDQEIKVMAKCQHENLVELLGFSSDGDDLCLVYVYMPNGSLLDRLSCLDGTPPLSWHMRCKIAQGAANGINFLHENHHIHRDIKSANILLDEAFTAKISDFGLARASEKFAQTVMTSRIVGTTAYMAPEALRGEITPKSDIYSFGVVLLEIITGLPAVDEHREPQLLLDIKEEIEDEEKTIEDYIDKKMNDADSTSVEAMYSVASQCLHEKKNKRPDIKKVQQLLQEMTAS

On to `Cc1cccc(-c2cnc3occ(-c4ccc(C(=O)O)c(C5CCCC5)c4)c3c2)c1` [SGC-CAMKK2-1 (YL-36)], for which the remaining binding at 1 µM on KIT(V559D,V654A) was found to be 100%; on DDR2 it was 100%; at TSSK3 it was 98%; at AMPK-alpha1, 95%; on TNK2, 99%; at PIK3CA(C420R), 100%. The remaining binding at 1 µM was 92% at TNIK [1]; 98% at MTOR [2]; 100% on DRAK1; 100% on IGF1R [3]; 94% on CAMK1D; 100% on YANK2. In addition, the remaining binding at 1 µM on CAMK2A was 95%; on PFCDPK1(P.falciparum), 100%.

In the case of `O=C(O)c1ccc(-c2coc3ncc(-c4ccccc4)cc23)cc1Cl` [SGC-CAMKK2-1N (UNC-YL-83)], the remaining binding at 1 µM on PRKCH stood at 94%; at TNIK [4], 73%; on WNK2, 58%; at VRK2, 58%; on GCN2(Kin.Dom.2,S808G) it was 100%; on GRK3 it was 66%. Also, the remaining binding at 1 µM turned out to be 42% at STK16; 94% at NIK; 95% on CSNK1G1; 82% in assay [5]; 100% on MTOR [6]; 100% on DCAMKL2. For the same compound, the remaining binding at 1 µM in assay [7] came to 68%; at DMPK, 72%; on MKK7, 82%; at ANKK1, 78%; at CSF1R, 100%; at IGF1R [8] it was 100%. Moreover, the remaining binding at 1 µM on IRAK4 was found to be 72%.
